# Legend:
# [1] = system: Jurkat cells (human acute T cell leukemia cell line); assay: Apoptosis by FACS (PI / FITC-annexin V), Jurkat cells; format: cell-based; details: 24 hours, CH11 1 μg/ml
# Method: (§1) The effects of the Apo-2 ligand on the 9D cells, as well as on Raji cells (human Burkitt's lymphoma B cell line, ATCC CCL 86) and Jurkat cells (human acute T cell leukemia cell line, ATCC TIB 152) were further analyzed by FACS. The FACS analysis was conducted, using established criteria for apoptotic cell death, namely, the relation of fluorescence staining of the cells with two markers: (a) propidium iodide (“PI”) dye, which stains apoptotic but not live cells, and (b) a fluorescent derivative of the protein, annexin V, which binds to the exposed phosphatidylserine found on the surface of apoptotic cells, but not on live cells [Darzynkiewicz et al., Methods in Cell Biol., 41:15-38 (1994); Fadok et al., J. Immunol., 148:2207-2214 (1992); Koopman et al., Blood, 84:1415-1420 (1994)].
# (§2) The 9D cells (FIG. 2B), Raji cells (FIG. 2C), and Jurkat cells (FIG. 2D) were incubated (1×10^6 cells/well) for 24 hours with a media control (left panels), Apo-2 ligand (3 μg/ml, prepared as described in Example 3) (center panels), or […], CH11 (1 μg/ml) (right panels). The cells were then washed, stained with PI and with […] (FITC)-conjugated annexin V (purchased from Brand Applications) and analyzed by flow cytometry. […]
# [2] = system: A549 (human lung carcinoma); assay: Apoptosis by FACS, A549 cells; format: cell-based
# Method: as §2, with “cytometry. Cells negative for both PI and annexin V staining (quadrant 3) represent live cells; PI-negative, annexin V-positive staining cells (quadrant 4) represent early apoptotic cells; PI-positive, annexin V-positive staining cells (quadrant 2) represent primarily cells in late stages of apoptosis.” for “cytometry.”
# (§3) In the assay, 1×10^6 cells of each cell line were incubated for 24 hours with a media control, Apo-2 ligand (3 μg/ml, prepared as described in Example 3), or anti-Apo-1 monoclonal antibody, CH11 (1 μg/ml). Following the incubation, apoptosis was measured by FACS analysis, as described in Example 4.
# [3] = system: peripheral blood T lymphocytes; assay: Apoptosis by FACS, peripheral blood T cells; format: cell-based, human; details: for % apoptotic cells: Apo-2L 3 μg/ml, mean ±SE
# [4] = system: peripheral blood B lymphocytes; assay: Apoptosis by FACS, peripheral blood B cells; format: cell-based, human; details: for % apoptotic cells: 3 days, Apo-2L 3 μg/ml, mean ±SE
# Method: Peripheral blood mononuclear cells (“PBMC”) were isolated from the blood of human donors by Ficoll density gradient centrifugation using Lymphocyte Separation Medium (LSM®, Organon Teknika). An isolated population of T cells was prepared from the PBMC by removal of B cells through surface Ig binding to an anti-Ig column and removal of monocytes through Fc receptor binding to an Ig column (R & D Systems). An isolated population of B cells was prepared from the PBMC by complement-mediated elimination of T cells reacted with the anti-CD3 antibody produced by the OKT3 myeloma (ATCC, CRL 8001) and of monocytes reacted with a monocyte-specific antibody produced by the 4F2C13 hybridoma (ATCC, HB 22). Additional monocyte removal was accomplished by adherence to plastic.
# The freshly isolated peripheral blood B or T cells (1×10^6 cells/well) were cultured for 3 days in the presence of a media control or Apo-2 ligand (3 μg/ml, prepared as described in Example 3). For activation, B cells were treated simultaneously with lipopolysaccharide ([…], 1 μg/ml), and T cells were treated with phorbol myristate acetate (“PMA”, 10 ng/ml) plus ionomycin (1 μg/ml) (Sigma). For interleukin-2 (“IL-2”) pretreatment, T cells were cultured for 3-5 days in the presence of IL-2 (50 U/ml) (Genzyme) before exposure to Apo-2 ligand. Apoptosis was determined using FACS analysis essentially as described above in Example 4. However, B cells were gated by anti-CD19/CD20 antibodies (Jackson Immunoresearch), and T cells were gated by anti-CD4/CD8 antibodies (Jackson Immunoresearch). The results are shown in Table 2 below, representing means ±SE of independent experiments [B lymphocytes—9 experiments; T lymphocytes—8 experiments; T lymphocytes plus IL-2-5 experiments], in which 50,000 cells were analyzed per data point. Statistical analysis was performed using the student t-test. In Table 2, a=p<0.05 and b=p<0.02 relative to the respective control.
# [5] = system: 9D cells (EBV-transformed human peripheral blood B cells); assay: Apoptosis by FACS (PI / FITC-annexin V), 9D cells; format: cell-based; details: 24 hours, CH11 1 μg/ml
# Method: as §1, §2
# Jurkat cells = assay: Internucleosomal DNA fragmentation, Jurkat cells; format: cell-based, human; details: 6 hours, Apo-2 ligand 3 μg/ml
# Method: (§4) The activation of internucleosomal DNA fragmentation by Apo-2 ligand was also analyzed. Jurkat cells (left lanes) and 9D cells (right lanes) were incubated (2×10^6 cells/well) for 6 hours with a media control or Apo-2 ligand (3 μg/ml, prepared as described in Example 3), The DNA was then extracted from the cells and labeled with ^32P-ddATP using terminal transferase. The labeled DNA samples were subjected to electrophoresis on 2% agarose gels and later analyzed by autoradiography [Moore et al., Cytotechnology, 17:1-11 (1995)]. […] Such DNA fragmentation is characteristic of apoptosis [Cohen, Advances in Immunol., 50:55-85 (1991)].
# [6] = system: MCF7 (human breast carcinoma); assay: Apoptosis by FACS, MCF7 cells; format: cell-based
# Method: as §2, with “cytometry. Cells negative for both PI and annexin V staining (quadrant 3) represent live cells; PI-negative, annexin V-positive staining cells (quadrant 4) represent early apoptotic cells; PI-positive, annexin V-positive staining cells (quadrant 2) represent primarily cells in late stages of apoptosis.” for “cytometry.”
# as §3
# [7] = system: HeLa (human cervical carcinoma); assay: Apoptosis by FACS, HeLa cells; format: cell-based
# Method: as §2, with “cytometry. Cells negative for both PI and annexin V staining (quadrant 3) represent live cells; PI-negative, annexin V-positive staining cells (quadrant 4) represent early apoptotic cells; PI-positive, annexin V-positive staining cells (quadrant 2) represent primarily cells in late stages of apoptosis.” for “cytometry.”
# as §3
# 9D cells [8] = assay: Internucleosomal DNA fragmentation, 9D cells; format: cell-based, human; details: 6 hours, Apo-2 ligand 3 μg/ml
# Method: as §4
# [9] = system: ME-180 (human cervical carcinoma); assay: Apoptosis by FACS, ME-180 cells; format: cell-based
# Method: as §2, with “cytometry. Cells negative for both PI and annexin V staining (quadrant 3) represent live cells; PI-negative, annexin V-positive staining cells (quadrant 4) represent early apoptotic cells; PI-positive, annexin V-positive staining cells (quadrant 2) represent primarily cells in late stages of apoptosis.” for “cytometry.”
# as §3
# [10] = system: U-937 (human hystiocytic lymphoma); assay: Apoptosis by FACS, U-937 cells; format: cell-based
# Method: as §2, with “cytometry. Cells negative for both PI and annexin V staining (quadrant 3) represent live cells; PI-negative, annexin V-positive staining cells (quadrant 4) represent early apoptotic cells; PI-positive, annexin V-positive staining cells (quadrant 2) represent primarily cells in late stages of apoptosis.” for “cytometry.”
# as §3
# [11] = system: Raji cells (human Burkitt's lymphoma B cell line); assay: Apoptosis by FACS (PI / FITC-annexin V), Raji cells; format: cell-based; details: 24 hours, CH11 1 μg/ml
# Method: as §1, §2
# 9D cells [12] = assay: Time course and dose-dependence of cell death (dead/live counts, hemocytometer), 9D cells; format: cell-based, human
# Method: To examine the time-course of the Apo-2 ligand apoptotic activity, 9D cells were incubated in microtiter dishes (5×10^4 cells/well) with a media control or Apo-2 ligand (3 μg/ml, prepared as described in Example 3) for a period of time ranging from 0 hours to 50 hours. Following the incubation, the numbers of dead and live cells were determined by microscopic examination using a hemocytometer.
# To determine dose-dependency of Apo-2 ligand-induced cell death, 9D cells were incubated (5×10^4 cells/well) for 24 hours with serial dilutions of a media control or Apo-2 ligand (prepared as described in Example 3). The numbers of dead and live cells following the incubation were determined as described above. The results are illustrated in FIG. 3B. Specific apoptosis was determined by subtracting the % apoptosis in the control from % apoptosis in Apo-2 ligand treated cells. Half-maximal activation of apoptosis occurred at approximately 0.1 μg/ml (approximately 1 nM), and maximal induction occurred at about 1 to about 3 μg/ml (approximately 10 to 30 nM).
# [13] = system: 293 (adenovirus-transformed human embryonic kidney cells); assay: Apoptosis by FACS, 293 cells; format: cell-based
# Method: as §2, with “cytometry. Cells negative for both PI and annexin V staining (quadrant 3) represent live cells; PI-negative, annexin V-positive staining cells (quadrant 4) represent early apoptotic cells; PI-positive, annexin V-positive staining cells (quadrant 2) represent primarily cells in late stages of apoptosis.” for “cytometry.”
# as §3
# [14] = Apo-2 ligand as compared to CH11 anti-Apo-1 antibody
substance,measurement,setting,value
"Apo-2L: purified, soluble recombinant human Apo-2 ligand: His10-tagged residues 114-281 of SEQ ID NO:1, expressed in baculovirus-infected Sf9 cells (Example 3)",% apoptotic cells,"[1]; Apo-2L 3 μg/ml, control 5.9",77.0%
same,"induction of apoptosis (annexin V binding, PI uptake), in words",[1]; Apo-2 ligand 3 μg/ml,induced a similar response
same,% apoptotic cells,"[2]; 24 hours, Apo-2L 3 μg/ml, CH11 1 μg/ml, control 16.5",74.6%
same,sensitivity to induction of apoptosis,[2]; [14],markedly more sensitive
same,"induction of apoptosis, in words",[3]; T cells activated with PMA and ionomycin,induced significant apoptosis
same,% apoptotic cells,"[3]; T lymphocytes + PMA 10 ng/ml / ionomycin 1 μg/ml, 3 days, control 40.3 ± 4.4",54.2%
same,% apoptotic cells,"[3]; T lymphocytes, IL-2 (50 U/ml, 3-5 days) pretreatment, 5 experiments, control 13.7 ± 1.2",34.5%
same,% apoptotic cells,"[3]; T lymphocytes, no treatment, 3 days, 8 experiments, control 6.3 ± 0.6",8.2 ± 0.8%
same,"sensitization to Apo-2 ligand-induced death, in words",[3]; peripheral T cells pretreated with IL-2,did sensitize
same,"induction of apoptosis, in words",[4]; B cells activated by LPS,induced significant apoptosis
same,% apoptotic cells,"[4]; B lymphocytes + LPS 1 μg/ml, control 44.8 ± 2.8",55.9%
same,% apoptotic cells,"[4]; B lymphocytes, no treatment, 9 experiments, control 40.1 ± 4.1",53.2%
same,"induction of apoptosis, in words",[4]; unstimulated B cells,induced significant apoptosis
same,% apoptotic cells,"[5]; Apo-2L 3 μg/ml, control 22.5",92.4%
same,"induction of apoptosis (annexin V binding, PI uptake), in words",[5]; Apo-2 ligand 3 μg/ml,induced apoptosis
same,internucleosomal DNA fragmentation,Jurkat cells,induced internucleosomal DNA fragmentation
same,% apoptotic cells,"[6]; 24 hours, Apo-2L 3 μg/ml, CH11 1 μg/ml, control 39.9",47.3%
same,sensitivity to induction of apoptosis,[6]; [14],equally sensitive
same,% apoptotic cells,"[7]; 24 hours, Apo-2L 3 μg/ml, CH11 1 μg/ml, control 5.3",18.6%
same,sensitivity to induction of apoptosis,[7]; [14],equally sensitive
same,internucleosomal DNA fragmentation,9D cells [8],induced internucleosomal DNA fragmentation
same,sensitivity to induction of apoptosis,[9],quite sensitive
same,% apoptotic cells,"[9]; 24 hours, Apo-2L 3 μg/ml, CH11 1 μg/ml, control 8.6",80.7%
same,% apoptotic cells,"[10]; 24 hours, Apo-2L 3 μg/ml, CH11 1 μg/ml, control 3.6",62.3%
same,sensitivity to induction of apoptosis,[10]; [14],markedly more sensitive
same,% apoptotic cells,"[11]; Apo-2L 3 μg/ml, control 35.9",73.4%
same,"induction of apoptosis (annexin V binding, PI uptake), in words",[11]; Apo-2 ligand 3 μg/ml,induced a similar response
same,half-maximal activation of apoptosis,"9D cells [12]; 24 hours, specific apoptosis (control subtracted)",approximately 0.1 μg/ml
same,EC50,"9D cells [12]; 24 hours, specific apoptosis (control subtracted), read-out: half-maximal activation of apoptosis",~1 nM
same,time to maximal levels of cell death,"9D cells [12]; Apo-2 ligand 3 μg/ml, 0 to 50 hours",≤ 24 h
same,sensitivity to induction of apoptosis,[13],resistant
same,% apoptotic cells,"[13]; 24 hours, Apo-2L 3 μg/ml, CH11 1 μg/ml, control 12.3",12.2%
